ChEMBL document CHEMBL4382234, “Fluoroquinolone-isatin hybrids and their biological activities” (Eur J Med Chem, 2019)
In brackets after ≈: the same amount, converted by molar mass.

Tested on: Mycobacterium tuberculosis
Assay: Antimycobacterial activity against isoniazid/rifampicin/ethambutol-resistant Mycobacterium tuberculosis after 3 to 7 days by rapid direct susceptibility test
Type: functional

Structure (SMILES) | MIC
Cc1ccc2c(c1)/C(=N\NC(N)=S)C(=O)N2CCCN1CCN(c2cc3c(cc2F)c(=O)c(C(=O)O)cn3C2CC2)CC1 | 0.1 to 64 µg/mL (≈ 0.165 to 106 µM)
O=C(O)c1cn(C2CC2)c2cc(N3CCN(CCCN4C(=O)/C(=N/O)c5ccccc54)CC3)c(F)cc2c1=O | 0.1 to 64 µg/mL (≈ 0.187 to 120 µM)
Cc1ccc2c(c1)/C(=N\NC(N)=O)C(=O)N2CCCN1CCN(c2cc3c(cc2F)c(=O)c(C(=O)O)cn3C2CC2)CC1 | 0.1 to 64 µg/mL (≈ 0.17 to 109 µM)
NC(=O)N/N=C1/C(=O)N(CCCN2CCN(c3cc4c(cc3F)c(=O)c(C(=O)O)cn4C3CC3)CC2)c2ccccc21 | 0.1 to 64 µg/mL (≈ 0.174 to 111 µM)
Cc1ccc2c(c1)/C(=N\O)C(=O)N2CCCN1CCN(c2cc3c(cc2F)c(=O)c(C(=O)O)cn3C2CC2)CC1 | 0.1 to 64 µg/mL (≈ 0.183 to 117 µM)
NC(=S)N/N=C1/C(=O)N(CCCN2CCN(c3cc4c(cc3F)c(=O)c(C(=O)O)cn4C3CC3)CC2)c2ccccc21 | 0.1 to 64 µg/mL (≈ 0.169 to 108 µM)

Tested on: Mycobacterium tuberculosis
Assay: Potency index, ratio of gatifloxacin MIC to test compound MIC for multidrug-resistant Mycobacterium tuberculosis
Type: functional

Structure (SMILES) | Ratio
CO/N=C1/C(=O)N(CCCN2CCN(c3c(F)cc4c(=O)c(C(=O)O)cn(C5CC5)c4c3OC)CC2C)c2ccc(F)cc21 (centres undefined) | >=4 - 512

Tested on: Mycobacterium tuberculosis
Assay: Antimycobacterial activity against multidrug-resistant Mycobacterium tuberculosis 09710 by rapid direct susceptibility test
Type: functional

Structure (SMILES) | MIC
COc1c(N2C[C@@H]3CCCN(CCN4C(=O)/C(=N\NC(N)=O)c5cc(F)ccc54)[C@@H]3C2)c(F)cc2c(=O)c(C(=O)O)cn(C3CC3)c12 | 0.39 to 16 µg/mL (≈ 0.6 to 24.6 µM)
COc1c(N2C[C@@H]3CCCN(CCN4C(=O)/C(=N\NC(N)=O)c5ccccc54)[C@@H]3C2)c(F)cc2c(=O)c(C(=O)O)cn(C3CC3)c12 | 0.39 to 16 µg/mL (≈ 0.617 to 25.3 µM)
COc1c(N2C[C@@H]3CCCN(CN4C(=O)/C(=N\NC(N)=S)c5cc(F)ccc54)[C@@H]3C2)c(F)cc2c(=O)c(C(=O)O)cn(C3CC3)c12 | 0.39 to 16 µg/mL (≈ 0.598 to 24.6 µM)
COc1c(N2C[C@@H]3CCCN(CCN4C(=O)C(=O)c5ccccc54)[C@@H]3C2)c(F)cc2c(=O)c(C(=O)O)cn(C3CC3)c12 | 0.39 to 16 µg/mL (≈ 0.679 to 27.8 µM)
CO/N=C1\C(=O)N(CN2CCC[C@H]3CN(c4c(F)cc5c(=O)c(C(=O)O)cn(C6CC6)c5c4OC)C[C@H]32)c2ccccc21 | 0.39 to 16 µg/mL (≈ 0.661 to 27.1 µM)
COc1c(N2C[C@@H]3CCCN(CN4C(=O)/C(=N\NC(N)=O)c5ccccc54)[C@@H]3C2)c(F)cc2c(=O)c(C(=O)O)cn(C3CC3)c12 | 0.39 to 16 µg/mL (≈ 0.631 to 25.9 µM)
COc1c(N2C[C@@H]3CCCN(CCN4C(=O)/C(=N\NC(N)=S)c5ccccc54)[C@@H]3C2)c(F)cc2c(=O)c(C(=O)O)cn(C3CC3)c12 | 0.39 to 16 µg/mL (≈ 0.602 to 24.7 µM)
CCO/N=C1\C(=O)N(CN2CCC[C@H]3CN(c4c(F)cc5c(=O)c(C(=O)O)cn(C6CC6)c5c4OC)C[C@H]32)c2ccc(F)cc21 | 0.39 to 16 µg/mL (≈ 0.627 to 25.7 µM)
COc1c(N2C[C@@H]3CCCN(CCN4C(=O)/C(=N\O)c5cc(F)ccc54)[C@@H]3C2)c(F)cc2c(=O)c(C(=O)O)cn(C3CC3)c12 | 0.39 to 16 µg/mL (≈ 0.642 to 26.3 µM)
CO/N=C1\C(=O)N(CCN2CCC[C@H]3CN(c4c(F)cc5c(=O)c(C(=O)O)cn(C6CC6)c5c4OC)C[C@H]32)c2cc(F)ccc21 | 0.39 to 16 µg/mL (≈ 0.627 to 25.7 µM)
CO/N=C1\C(=O)N(CCN2CCC[C@H]3CN(c4c(F)cc5c(=O)c(C(=O)O)cn(C6CC6)c5c4OC)C[C@H]32)c2ccccc21 | 0.39 to 16 µg/mL (≈ 0.646 to 26.5 µM)
COc1c(N2C[C@@H]3CCCN(CN4C(=O)/C(=N\NC(N)=O)c5cc(F)ccc54)[C@@H]3C2)c(F)cc2c(=O)c(C(=O)O)cn(C3CC3)c12 | 0.39 to 16 µg/mL (≈ 0.614 to 25.2 µM)
CCO/N=C1\C(=O)N(CCN2CCC[C@H]3CN(c4c(F)cc5c(=O)c(C(=O)O)cn(C6CC6)c5c4OC)C[C@H]32)c2ccccc21 | 0.39 to 16 µg/mL (≈ 0.631 to 25.9 µM)
COc1c(N2C[C@@H]3CCCN(CN4C(=O)C(=O)c5cc(F)ccc54)[C@@H]3C2)c(F)cc2c(=O)c(C(=O)O)cn(C3CC3)c12 | 0.39 to 16 µg/mL (≈ 0.674 to 27.7 µM)
COc1c(N2C[C@@H]3CCCN(CN4C(=O)C(=O)c5ccccc54)[C@@H]3C2)c(F)cc2c(=O)c(C(=O)O)cn(C3CC3)c12 | 0.39 to 16 µg/mL (≈ 0.696 to 28.5 µM)
COc1c(N2C[C@@H]3CCCN(CCN4C(=O)/C(=N\O)c5ccccc54)[C@@H]3C2)c(F)cc2c(=O)c(C(=O)O)cn(C3CC3)c12 | 0.39 to 16 µg/mL (≈ 0.661 to 27.1 µM)
COc1c(N2C[C@@H]3CCCN(CCN4C(=O)/C(=N\NC(N)=S)c5cc(F)ccc54)[C@@H]3C2)c(F)cc2c(=O)c(C(=O)O)cn(C3CC3)c12 | 0.39 to 16 µg/mL (≈ 0.586 to 24 µM)
CCO/N=C1\C(=O)N(CCN2CCC[C@H]3CN(c4c(F)cc5c(=O)c(C(=O)O)cn(C6CC6)c5c4OC)C[C@H]32)c2ccc(F)cc21 | 0.39 to 16 µg/mL (≈ 0.614 to 25.2 µM)
COc1c(N2C[C@@H]3CCCN(CN4C(=O)/C(=N\O)c5cc(F)ccc54)[C@@H]3C2)c(F)cc2c(=O)c(C(=O)O)cn(C3CC3)c12 | 0.39 to 16 µg/mL (≈ 0.657 to 27 µM)
COc1c(N2C[C@@H]3CCCN(CN4C(=O)/C(=N\NC(N)=S)c5ccccc54)[C@@H]3C2)c(F)cc2c(=O)c(C(=O)O)cn(C3CC3)c12 | 0.39 to 16 µg/mL (≈ 0.615 to 25.2 µM)
CCO/N=C1\C(=O)N(CN2CCC[C@H]3CN(c4c(F)cc5c(=O)c(C(=O)O)cn(C6CC6)c5c4OC)C[C@H]32)c2ccccc21 | 0.39 to 16 µg/mL (≈ 0.646 to 26.5 µM)
COc1c(N2C[C@@H]3CCCN(CN4C(=O)/C(=N\O)c5ccccc54)[C@@H]3C2)c(F)cc2c(=O)c(C(=O)O)cn(C3CC3)c12 | 0.39 to 16 µg/mL (≈ 0.678 to 27.8 µM)
CO/N=C1\C(=O)N(CN2CCC[C@H]3CN(c4c(F)cc5c(=O)c(C(=O)O)cn(C6CC6)c5c4OC)C[C@H]32)c2ccc(F)cc21 | 0.39 to 16 µg/mL (≈ 0.642 to 26.3 µM)
COc1c(N2C[C@@H]3CCCN[C@@H]3C2)c(F)cc2c(=O)c(C(=O)O)cn(C3CC3)c12 [MOXIFLOXACIN] | 0.1 to 1 µg/mL (≈ 0.249 to 2.49 µM)
COc1c(N2C[C@@H]3CCCN(CCN4C(=O)C(=O)c5cc(F)ccc54)[C@@H]3C2)c(F)cc2c(=O)c(C(=O)O)cn(C3CC3)c12 | 0.39 to 16 µg/mL (≈ 0.658 to 27 µM)

Tested on: Mycobacterium tuberculosis
Assay: Potency index, ratio of rifampicin MIC to test compound MIC for multidrug-resistant Mycobacterium tuberculosis
Type: functional

Structure (SMILES) | Ratio
CO/N=C1/C(=O)N(CCCN2CCN(c3c(F)cc4c(=O)c(C(=O)O)cn(C5CC5)c4c3OC)CC2C)c2ccc(F)cc21 (centres undefined) | >=4 - 512

Tested on: Mycobacterium tuberculosis
Assay: Antimycobacterial activity against multidrug-resistant Mycobacterium tuberculosis after 3 to 7 days by rapid direct susceptibility test
Type: functional

Structure (SMILES) | MIC
COc1c(N2C[C@@H]3CCCN(Cc4cn(CCN5C(=O)/C(=N/NC(N)=O)c6ccccc65)nn4)[C@@H]3C2)c(F)cc2c(=O)c(C(=O)O)cn(C3CC3)c12 | 0.1 to 0.78 µg/mL (≈ 0.14 to 1.09 µM)
COc1c(N2C[C@@H]3CCCN(Cc4cn(CCN5C(=O)/C(=N/O)c6ccccc65)nn4)[C@@H]3C2)c(F)cc2c(=O)c(C(=O)O)cn(C3CC3)c12 | 0.1 to 0.78 µg/mL (≈ 0.149 to 1.16 µM)
COc1c(N2CCNC(C)C2)c(F)cc2c(=O)c(C(=O)O)cn(C3CC3)c12 (centres undefined) [GATIFLOXACIN] | 1 µg/mL (≈ 2.66 µM)
CO/N=C1/C(=O)N(CCn2cc(CN3CCC[C@H]4CN(c5c(F)cc6c(=O)c(C(=O)O)cn(C7CC7)c6c5OC)C[C@H]43)nn2)c2ccccc21 | 0.1 to 0.78 µg/mL (≈ 0.146 to 1.14 µM)
CO[C@H]1/C=C/O[C@@]2(C)Oc3c(C)c(O)c4c(O)c(c(/C=N/N5CCN(C)CC5)c(O)c4c3C2=O)NC(=O)/C(C)=C\C=C\[C@H](C)[C@H](O)[C@@H](C)[C@@H](O)[C@@H](C)[C@H](OC(C)=O)[C@@H]1C [RIFAMPIN] | 32 to 64 µg/mL (≈ 38.9 to 77.8 µM)
COc1c(N2C[C@@H]3CCCN(Cc4cn(CCN5C(=O)C(=O)c6ccccc65)nn4)[C@@H]3C2)c(F)cc2c(=O)c(C(=O)O)cn(C3CC3)c12 | 0.1 to 0.78 µg/mL (≈ 0.153 to 1.19 µM)
CCO/N=C1/C(=O)N(CCn2cc(CN3CCC[C@H]4CN(c5c(F)cc6c(=O)c(C(=O)O)cn(C7CC7)c6c5OC)C[C@H]43)nn2)c2ccc(Br)cc21 | 0.1 to 0.78 µg/mL (≈ 0.129 to 1 µM)
COc1c(N2C[C@@H]3CCCN(Cc4cn(CCN5C(=O)/C(=N/O)c6cc(Br)ccc65)nn4)[C@@H]3C2)c(F)cc2c(=O)c(C(=O)O)cn(C3CC3)c12 | 0.1 to 0.78 µg/mL (≈ 0.133 to 1.04 µM)
NNC(=O)c1ccncc1 [ISONIAZID] | > 128 µg/mL
COc1c(N2C[C@@H]3CCCN(Cc4cn(CCN5C(=O)/C(=N/NC(N)=O)c6cc(Br)ccc65)nn4)[C@@H]3C2)c(F)cc2c(=O)c(C(=O)O)cn(C3CC3)c12 | 0.1 to 0.78 µg/mL (≈ 0.126 to 0.985 µM)
CCO/N=C1/C(=O)N(CCn2cc(CN3CCC[C@H]4CN(c5c(F)cc6c(=O)c(C(=O)O)cn(C7CC7)c6c5OC)C[C@H]43)nn2)c2ccccc21 | 0.1 to 0.78 µg/mL (≈ 0.143 to 1.12 µM)
CO/N=C1/C(=O)N(CCn2cc(CN3CCC[C@H]4CN(c5c(F)cc6c(=O)c(C(=O)O)cn(C7CC7)c6c5OC)C[C@H]43)nn2)c2ccc(Br)cc21 | 0.1 to 0.78 µg/mL (≈ 0.131 to 1.02 µM)
CO/N=C1/C(=O)N(CCCN2CCN(c3c(F)cc4c(=O)c(C(=O)O)cn(C5CC5)c4c3OC)CC2C)c2ccc(F)cc21 (centres undefined) | 0.25 µg/mL (≈ 0.41 µM)
COc1c(N2C[C@@H]3CCCN[C@@H]3C2)c(F)cc2c(=O)c(C(=O)O)cn(C3CC3)c12 [MOXIFLOXACIN] | 0.12 µg/mL (≈ 0.299 µM)
COc1c(N2C[C@@H]3CCCN(Cc4cn(CCN5C(=O)C(=O)c6cc(Br)ccc65)nn4)[C@@H]3C2)c(F)cc2c(=O)c(C(=O)O)cn(C3CC3)c12 | 0.1 to 0.78 µg/mL (≈ 0.136 to 1.06 µM)

Tested on: Mycobacterium tuberculosis
Assay: Potency index, ratio of isoniazid MIC to test compound MIC for multidrug-resistant Mycobacterium tuberculosis
Type: functional

Structure (SMILES) | Ratio
CO/N=C1/C(=O)N(CCCN2CCN(c3c(F)cc4c(=O)c(C(=O)O)cn(C5CC5)c4c3OC)CC2C)c2ccc(F)cc21 (centres undefined) | >=4 - 512
